Results taken from patent publication US11566007B2, “Ras inhibitors” (Revolution Medicines, Inc., priority 2019, dated 2023).
Values joined by “and” are separate entries in the source; they are usually repeats but may differ in a detail not shown here. Equal values may be shown once.

Experiments:
KRAS G12S = KRAS G12S (Homo sapiens (Human), UniProt P01116+P62937, G12S); test: Ras-Raf (BRAF RBD) disruption / FRET / MOA assay, KRAS G12S; format: biochemical; conditions: Ras-Raf disruption/FRET/MOA assay; class symbols; read-out: KRAS G12S FRET data IC50
How it was run: (§1)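 A 10-point, 3-fold dilution series topping at 30 μM final was incubated 3 h at 25° C with the Ras/cyclophilin A/BRAF RBD mixture.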

KRAS G12V = KRAS G12V (Homo sapiens (Human), UniProt P01116+P62937, G12V); test: Ras-Raf (BRAF RBD) disruption / FRET / MOA assay, KRAS G12V; format: biochemical; conditions: read-out: IC50* KRAS G12V FRET data
How it was run: as §1

NRAS Q61K = NRAS Q61K (Homo sapiens (Human), UniProt P01111+P62937, Q61K); test: Ras-Raf (BRAF RBD) disruption / FRET / MOA assay, NRAS Q61K; format: biochemical; conditions: NRAS Q61K; Ras-Raf disruption/FRET/MOA assay; read-out: IC50* NRAS Q61K FRET data
How it was run: (§2)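 Compounds (30 μM top final, 10-point 3-fold dilutions) incubated 3 h at 25° C with nucleotide-loaded Ras, cyclophilin A and BRAF RBD. Detection with 10 nM anti-His Eu-W1024 and 50 nM anti-GST allophycocyanin over another 1.5 h. Lowered TR-FRET ratio relative to DMSO wells gives IC50.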

KRAS Q61H = KRAS Q61H (Homo sapiens (Human), UniProt P01116+P62937, Q61H); test: Ras-Raf (BRAF RBD) disruption / FRET / MOA assay, KRAS Q61H; format: biochemical; conditions: Ras-Raf disruption/FRET/MOA assay; class symbols; read-out: KRAS Q61H FRET data IC50
How it was run: as §2

NCI-H358 (K-Ras G12C) = test: CellTiter-Glo cell viability assay, NCI-H358; format: cell-based, human; conditions: Homo sapiens, NCI-H358, 120 h, NCI-H358, 5-day treatment; class symbols; read-out: Additional H358 Cell Viability assay data (K-Ras G12C, IC50)
How it was run: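 Compounds were dispensed directly onto K-Ras mutant cells and incubated until day 5, then plates were equilibrated to room temperature for about 30 minutes before CellTiter-Glo luminescence. Signals were normalized as (sample/average DMSO)*100 and fitted by four-parameter logistic fit.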

NRAS Q61R = NRAS Q61R (Homo sapiens (Human), UniProt P01111+P62937, Q61R); test: Ras-Raf (BRAF RBD) disruption / FRET / MOA assay, NRAS Q61R; format: biochemical; conditions: NRAS Q61R; Ras-Raf disruption/FRET/MOA assay; read-out: IC50* NRAS Q61R FRET data
How it was run: as §2

KRAS G13D = KRAS G13D (Homo sapiens (Human), UniProt P01116+P62937, G13D); test: Ras-Raf (BRAF RBD) disruption / FRET / MOA assay, KRAS G13D; format: biochemical; conditions: read-out: IC50* KRAS G13D FRET data
How it was run: as §1

Sequence of NRAS Q61K (P01111 whole entry Q61K): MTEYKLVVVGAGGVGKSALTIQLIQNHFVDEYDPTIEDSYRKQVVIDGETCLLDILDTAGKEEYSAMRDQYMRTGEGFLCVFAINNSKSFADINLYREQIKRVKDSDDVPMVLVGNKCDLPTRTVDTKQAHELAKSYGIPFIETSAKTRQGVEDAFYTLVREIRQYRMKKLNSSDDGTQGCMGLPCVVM
Sequence of NRAS Q61K (P62937 whole entry): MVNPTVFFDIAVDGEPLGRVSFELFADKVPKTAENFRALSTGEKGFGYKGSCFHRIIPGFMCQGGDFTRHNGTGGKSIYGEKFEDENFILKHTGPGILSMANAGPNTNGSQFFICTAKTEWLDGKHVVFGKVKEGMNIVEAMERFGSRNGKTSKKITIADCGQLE
Sequence of KRAS G12S (P01116-2 other isoform, or with tags, fused parts or gaps G12S): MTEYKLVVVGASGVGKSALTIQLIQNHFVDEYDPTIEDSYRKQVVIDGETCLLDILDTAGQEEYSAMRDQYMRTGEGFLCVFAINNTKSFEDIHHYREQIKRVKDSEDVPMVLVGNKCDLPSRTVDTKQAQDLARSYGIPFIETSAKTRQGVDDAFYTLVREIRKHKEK
Sequence of KRAS G12S (P62937 whole entry): as the sequence (P62937 whole entry) above
Sequence of KRAS G13D (P01116-2 other isoform, or with tags, fused parts or gaps G13D): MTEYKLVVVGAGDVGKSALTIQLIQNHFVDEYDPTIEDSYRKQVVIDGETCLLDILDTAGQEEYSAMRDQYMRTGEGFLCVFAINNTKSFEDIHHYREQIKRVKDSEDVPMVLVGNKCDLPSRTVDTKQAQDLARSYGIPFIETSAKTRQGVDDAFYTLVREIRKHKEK
Sequence of KRAS G13D (P62937 whole entry): as the sequence (P62937 whole entry) above
Sequence of KRAS Q61H (P01116-2 other isoform, or with tags, fused parts or gaps Q61H): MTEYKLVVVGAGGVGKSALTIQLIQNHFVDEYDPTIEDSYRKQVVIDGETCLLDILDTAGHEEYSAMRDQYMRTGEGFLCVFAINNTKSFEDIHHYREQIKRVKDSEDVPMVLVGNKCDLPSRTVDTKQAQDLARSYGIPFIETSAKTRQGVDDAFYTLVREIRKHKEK
Sequence of KRAS Q61H (P62937 whole entry): as the sequence (P62937 whole entry) above
Sequence of NRAS Q61R (P01111 whole entry Q61R): as the sequence (P01111 whole entry Q61K) above, with K61R counted along it
Sequence of NRAS Q61R (P62937 whole entry): as the sequence (P62937 whole entry) above
Sequence of KRAS G12V (P01116-2 other isoform, or with tags, fused parts or gaps G12V): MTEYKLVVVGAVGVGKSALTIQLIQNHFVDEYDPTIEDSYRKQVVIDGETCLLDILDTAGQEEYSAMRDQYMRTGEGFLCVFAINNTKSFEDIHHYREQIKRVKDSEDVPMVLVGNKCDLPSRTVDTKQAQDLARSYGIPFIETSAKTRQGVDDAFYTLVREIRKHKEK
Sequence of KRAS G12V (P62937 whole entry): as the sequence (P62937 whole entry) above

Compound | IC50 (KRAS G12S) [nM] | IC50 (KRAS G12V) | IC50 (NRAS Q61K) [nM] | IC50 (KRAS Q61H) [nM] | IC50 (NCI-H358 (K-Ras G12C)) [nM] | IC50 (NRAS Q61R) [nM] | IC50 (KRAS G13D) [nM]
CCn1c(-c2cccnc2[C@H](C)OC)c2c3cc(ccc31)-c1cnc(o1)C[C@H](NC(=O)[C@H](C(C)C)N(C)C(=O)[C@H]1CCN(C(=O)C#CC(C)(C)N(C)C)C1)C(=O)N1CCC[C@H](N1)C(=O)OCC(C)(C)C2 (atropisomer, axis not shown) [Example A692, (3S)-1-(4-(dimethylamino)-4-methylpent-2-ynoyl)-N-((2S)-1-(((6^3S,4S)-1^1-ethyl-1^2-(2-((S)-1-methoxyethyl)pyridin-3-yl)-10,10-dimethyl-5,7-dioxo-6^1,6^2,6^3,6^4,6^5,6^6-hexahydro-1^1H-8-oxa-2(5,2)-oxazola-1(5,3)-indola-6(1,3)-pyridazinacycloundecaphane-4-yl)amino)-3-methyl-1-oxobutan-2-yl)-N-methylpyrrolidine-3-carboxamide] | 1000 to 10000 | 1000 to 10000 nM | > 10000 | 1000 to 10000 | < 10 | > 10000 | > 10000
C=CC(=O)N1CCOC2(CCN(C(=O)N(C)[C@H](C(=O)N[C@H]3Cc4nc(cs4)-c4ccc5c(c4)c(c(-c4cccnc4[C@H](C)OC)n5CC)CC(C)(C)COC(=O)[C@@H]4CCCN(N4)C3=O)C(C)C)CC2)C1 (atropisomer, axis not shown) [Example A695] | 100 to 1000 | 100 to 1000 nM | 100 to 1000 | 100 to 1000 | 10 to 100 | 100 to 1000 | 100 to 1000
C=CC(=O)N1CCC2(CC1)CCN(C(=O)N(C)[C@H](C(=O)N[C@H]1Cc3nc(cs3)-c3ccc4c(c3)c(c(-c3cccnc3[C@H](C)OC)n4CC)CC(C)(C)COC(=O)[C@@H]3CCCN(N3)C1=O)C(C)C)CC2 (atropisomer, axis not shown) [Example A697] | 100 to 1000 | 100 to 1000 nM | 10 to 100 | 10 to 100 | 10 to 100 | 10 to 100 | 100 to 1000
C=CC(=O)N1CCC(F)(C(=O)N(C)[C@H](C(=O)N[C@H]2Cc3nc(cs3)-c3ccc4c(c3)c(c(-c3cccnc3[C@H](C)OC)n4CC)CC(C)(C)COC(=O)[C@@H]3CCCN(N3)C2=O)C(C)C)CC1 (atropisomer, axis not shown) [Example A700] | 100 to 1000 | 100 to 1000 nM | 100 to 1000 | 100 to 1000 | < 10 | 100 to 1000 | 100 to 1000
C=CC(=O)N1CCO[C@H]2CN(C(=O)N(C)[C@H](C(=O)N[C@H]3Cc4nc(cs4)-c4ccc5c(c4)c(c(-c4cccnc4[C@H](C)OC)n5CC)CC(C)(C)COC(=O)[C@@H]4CCCN(N4)C3=O)C(C)C)C[C@H]21 (atropisomer, axis not shown) [Example A706] | 1000 to 10000 | 1000 to 10000 nM | 100 to 1000 | 100 to 1000 | < 10 | 100 to 1000 | 1000 to 10000
CO[C@@H](C)c1ncccc1-c1c2c3cc(ccc3n1CC(F)(F)F)-c1cnc(o1)C[C@H](NC(=O)[C@H](C(C)C)N(C)C(=O)[C@H]1CCN(C(=O)C#CC(C)(C)N(C)C)C1)C(=O)N1CCC[C@H](N1)C(=O)OCC(C)(C)C2 (atropisomer, axis not shown) [Example A707] | 1000 to 10000 | 1000 to 10000 nM | > 10000 | 1000 to 10000 | < 10 | > 10000 | 1000 to 10000
CO[C@@H](C)c1ncccc1-c1c2c3nc(ccc3n1CC(F)(F)F)-c1cccc(c1)C[C@H](NC(=O)[C@@H](COC1CN(C(=O)C#CC(C)(C)N(C)C)C1)C(C)C)C(=O)N1CCC[C@H](N1)C(=O)OCC(C)(C)C2 (atropisomer, axis not shown) [Example A724] | > 10000 | > 10000 nM | > 10000 | > 10000 | < 10 | > 10000 | > 10000
CCn1c(-c2cccnc2[C@H](C)OC)c2c3cc(ccc31)-c1cccc(c1)C[C@H](NC(=O)[C@H](C(C)C)N1CO[C@@]3(CCN(C(=O)C#CC(C)(C)N4CCC4)C3)C1=O)C(=O)N1CCC[C@H](N1)C(=O)OCC(C)(C)C2 (atropisomer, axis not shown) [Example A733] | 1000 to 10000 | 1000 to 10000 nM | > 10000 | 1000 to 10000 | < 10 | > 10000 | > 10000
CCn1c(-c2cccnc2[C@H](C)OC)c2c3cc(ccc31)-c1cccc(c1)C[C@H](NC(=O)C(COC1CN(C(=O)C#CC(C)(C)N(C)C)C1)C(C)C)C(=O)N1CCC[C@H](N1)C(=O)OCC(C)(C)C2 (stereo partly drawn) [Example A316, (2R)-2-(((1-(4-(dimethylamino)-4-methylpent-2-ynoyl)azetidin-3-yl)oxy)methyl)-N-((6^3S,4S)-1^1-ethyl-1^2-(2-((S)-1-methoxyethyl)pyridin-3-yl)-10,10-dimethyl-5,7-dioxo-6^1,6^2,6^3,6^4,6^5,6^6-hexahydro-1^1H-8-oxa-1(5,3)-indola-6(1,3)-pyridazina-2(1,3)-benzenacycloundecaphane-4-yl)-3-methylbutanamide] | > 10000 | 1 µM to 10 µM and > 10 µM (2×) | > 10000 | > 10000 | < 10 | > 10000 | > 10000
CCn1c(-c2cccnc2[C@H](C)OC)c2c3cc(ccc31)N1CCO[C@@H](C[C@H](NC(=O)[C@H](C(C)C)N(C)C(=O)[C@@]3(F)CCC(C(=O)C#CC(C)(C)N4CCC4)C3)C(=O)N3CCC[C@H](N3)C(=O)OCC(C)(C)C2)C1 (stereo partly shown) [Example A726] | 1000 to 10000 | 1000 to 10000 nM | > 10000 | 1000 to 10000 | < 10 | > 10000 | 1000 to 10000

Other lines, results leading:

IC50 (KRAS G12S) [nM] | IC50 (KRAS G12V) | IC50 (NRAS Q61K) [nM] | IC50 (KRAS Q61H) [nM] | IC50 (NCI-H358 (K-Ras G12C)) [nM] | IC50 (NRAS Q61R) [nM] | IC50 (KRAS G13D) [nM] | Compound
10 to 100 | 100 to 1000 nM | 10 to 100 | 10 to 100 | < 10 | 10 to 100 | 100 to 1000 | C=CC(=O)N1CCN(C(=O)N(C)[C@H](C(=O)N[C@H]2Cc3nc(cs3)-c3ccc4c(c3)c(c(-c3cccnc3[C@H](C)OC)n4CC)CC(C)(C)COC(=O)[C@@H]3CCCN(N3)C2=O)C(C)C)[C@@H]2C[C@@H]21 (atropisomer, axis not shown) [Example A736]
100 to 1000 | 100 to 1000 nM | 1000 to 10000 | 100 to 1000 | < 10 | 1000 to 10000 | 1000 to 10000 | C=CC(=O)C1CC[C@H](C(=O)N(C)[C@H](C(=O)N[C@H]2Cc3cc(O)cc(c3)-c3ccc4c(c3)c(c(-c3cnn(C)c3[C@H](C)OC)n4CC)CC(C)(C)COC(=O)[C@@H]3CCCN(N3)C2=O)C(C)C)C1 (stereo partly shown) [Example A166]
10 to 100 | 10 to 100 nM | 100 to 1000 | 10 to 100 | < 10 | 100 to 1000 | 100 to 1000 | C=CC(=O)N1CC[C@H](C(=O)N(C)[C@H](C(=O)N[C@H]2Cc3cc(O)cc(c3)-c3ccc4c(c3)c(c(-c3cncc5c3[C@@H](OC)CC5)n4CC)CC(C)(C)COC(=O)[C@@H]3CCCN(N3)C2=O)C(C)C)C1 [Example A275]
> 10000 | > 10000 nM | > 10000 | > 10000 | > 1000 | > 10000 | > 10000 | C=CC(=O)N1CC[C@H](C(=O)N(C)[C@H](C(=O)N[C@H]2Cc3nc(ns3)-c3ccc4c(c3)c(c(-c3cncnc3)n4CC)CC(C)(C)COC(=O)[C@@H]3CCCN(N3)C2=O)C(C)C)C1 [Example A285]
10 to 100 | 10 to 100 nM | 100 to 1000 | 10 to 100 | < 10 | 100 to 1000 | 10 to 100 | C=CC(=O)N1CC[C@H](C(=O)N(C)[C@H](C(=O)N[C@H]2Cc3cc(O)cc(c3)-c3ccc4c(c3)c(c(-c3cnn5c3[C@@H](OC)CCC5)n4CC)CC(C)(C)COC(=O)[C@@H]3CCCN(N3)C2=O)C(C)C)C1 [Example A300]
100 to 1000 | 100 to 1000 nM | 1000 to 10000 | 100 to 1000 | < 10 | 100 to 1000 | 100 to 1000 | C=CC(=O)N1CCC(C(=O)N(C)[C@H](C(=O)N[C@H]2Cc3cc(CF)cc(c3)-c3ccc4c(c3)c(c(-c3cccnc3[C@H](C)OC)n4CC(F)(F)F)CC(C)(C)COC(=O)[C@@H]3CCCN(N3)C2=O)C(C)C)C1 (stereo partly shown) [Example A659]
